Assay results reported in paper PMC3115942 (PLoS ONE, 2011).

What was measured:
[1] = test system: Gli1 mRNA expression in Ptch−/− MEF; assay: Real time PCR of Gli1 mRNA in Ptch−/− MEF; format: cell-based, mouse; details: 5 µM, 48 hours
Method: Cells were lysed for RNA extraction after 48 or 72 hours of treatment. Total RNA from cultured cells or tumor tissue was isolated using the GeneElute miniprep kit (Sigma-Aldritch) following the manufacturer^'s instructions. cDNA was synthesized from the isolated mRNA using the Retroscript kit (Ambion), and real-time PCR was carried out using the SYBR Green PCR master mix (Stratagene) according to the manufacturer^'s instructions with an Mx3000P cycler (Stratagene). The relative concentrations of cDNA present in each sample were calculated by the MxPro software (Stratagene), normalized for GAPDH (mRNA from cells) or GUS (mRNA from tumors). For real time PCR primer sequences see Table 6. For the tumor tissue real time PCR, previously described human and mouse specific primers against GUSB, PTCH1 and GLI1were used.

PC-3 cells = assay: In vitro antiproliferative assay (MTS), PC-3; format: cell-based, human; details: 4 day
Method: Cells were plated at a density of 3000 (THLE-2 and PC-3) and 1000 (PANC-1, SUIT-2 and FEMX) cells per well (on the basis of their growth rate) in 200 µl of medium in a 96-well plate. Medium was changed daily, and after four days, the assay was read using a MTS kit (Promega) according to the instructions of the manufacturer. Graphs display average of percent growth with standard deviation (n = 8).

SUIT-2 cells = assay: Soft agar colony formation assay, SUIT-2; format: cell-based, human; details: 14 days
Method: 2000 PANC-1 or SUIT-2 cells were suspended in 1.5 mL growth media containing 0.35% agar (Oxoid), over a 1.5 mL base layer containing 0.5% agar in 6-well plates. The plates were incubated for 14 days (SUIT-2) and 21 days (PANC-1) and then stained for 1 h with 1 ml of 0.02% crystal violet (Sigma-Aldrich), and colonies were counted according to sizes; <0.2 mm (small), 0.2–1 mm (medium) and >1 mm (large). Data represent average numbers with standard deviation bars (n = 3). The experiments have been repeated with similar result.

Abl(h) = molecular target: T1, Abl(h) (Homo sapiens, UniProt P00519); assay: Millipore kinaseprofiler diversity array; format: biochemical; details: 10 µM MS-0022
T1 construct: purchased Millipore (Upstate) KinaseProfiler
Method: (§1) Table 4 Kinase activity in presence of 10 µM MS-0022 in a kinaseprofiler diversity array. | column: Activity %

CDK2/cyclinA(h) = molecular target: T2, CDK2/cyclinA(h) (Homo sapiens, UniProt P24941); assay: Millipore kinaseprofiler diversity array; format: biochemical; details: 10 µM MS-0022
T2 construct: purchased Millipore (Upstate) KinaseProfiler
Method: as §1

DRAK1(h) = molecular target: T3, DRAK1(h) (Homo sapiens, UniProt Q9UEE5); assay: Millipore kinaseprofiler diversity array; format: biochemical; details: 10 µM MS-0022
T3 construct: purchased Millipore (Upstate) KinaseProfiler
Method: as §1

EphA5(h) = molecular target: T4, EphA5(h) (Homo sapiens, UniProt P54756); assay: Millipore kinaseprofiler diversity array; format: biochemical; details: 10 µM MS-0022
T4 construct: purchased Millipore (Upstate) KinaseProfiler
Method: as §1

Fyn(h) = molecular target: T5, Fyn(h) (Homo sapiens, UniProt P06241); assay: Millipore kinaseprofiler diversity array; format: biochemical; details: 10 µM MS-0022
T5 construct: purchased Millipore (Upstate) KinaseProfiler
Method: as §1

GRK5(h) = molecular target: T6, GRK5(h) (Homo sapiens, UniProt P34947); assay: Millipore kinaseprofiler diversity array; format: biochemical; details: 10 µM MS-0022
T6 construct: purchased Millipore (Upstate) KinaseProfiler
Method: as §1

IGF-1R(h) = molecular target: T7, IGF-1R(h) (Homo sapiens, UniProt P08069); assay: Millipore kinaseprofiler diversity array; format: biochemical; details: 10 µM MS-0022
T7 construct: purchased Millipore (Upstate) KinaseProfiler
Method: as §1

IKKα(h) = molecular target: T8, IKKα(h) (Homo sapiens, UniProt O15111); assay: Millipore kinaseprofiler diversity array; format: biochemical; details: 10 µM MS-0022
T8 construct: purchased Millipore (Upstate) KinaseProfiler
Method: as §1

JAK2(h) = molecular target: T9, JAK2(h) (Homo sapiens, UniProt O60674); assay: Millipore kinaseprofiler diversity array; format: biochemical; details: 10 µM MS-0022
T9 construct: purchased Millipore (Upstate) KinaseProfiler
Method: as §1

KDR(h) = molecular target: T10, KDR(h) (Homo sapiens, UniProt P35968); assay: Millipore kinaseprofiler diversity array; format: biochemical; details: 10 µM MS-0022
T10 construct: purchased Millipore (Upstate) KinaseProfiler
Method: as §1

Lyn(h) = molecular target: T11, Lyn(h) (Homo sapiens, UniProt P07948); assay: Millipore kinaseprofiler diversity array; format: biochemical; details: 10 µM MS-0022
T11 construct: purchased Millipore (Upstate) KinaseProfiler
Method: as §1

MAPK2(h) = molecular target: T12, MAPK2(h) (Homo sapiens, UniProt P28482); assay: Millipore kinaseprofiler diversity array; format: biochemical; details: 10 µM MS-0022
T12 construct: purchased Millipore (Upstate) KinaseProfiler
Method: as §1

MEK1(h) = molecular target: T13, MEK1(h) (Homo sapiens, UniProt Q02750); assay: Millipore kinaseprofiler diversity array; format: biochemical; details: 10 µM MS-0022
T13 construct: purchased Millipore (Upstate) KinaseProfiler
Method: as §1

MSK2(h) = molecular target: T14, MSK2(h) (Homo sapiens, UniProt O75676); assay: Millipore kinaseprofiler diversity array; format: biochemical; details: 10 µM MS-0022
T14 construct: purchased Millipore (Upstate) KinaseProfiler
Method: as §1

NEK2(h) = molecular target: T15, NEK2(h) (Homo sapiens, UniProt P51955); assay: Millipore kinaseprofiler diversity array; format: biochemical; details: 10 µM MS-0022
T15 construct: purchased Millipore (Upstate) KinaseProfiler
Method: as §1

PDGFRβ(h) = molecular target: T16, PDGFRβ(h) (Homo sapiens, UniProt P09619); assay: Millipore kinaseprofiler diversity array; format: biochemical; details: 10 µM MS-0022
T16 construct: purchased Millipore (Upstate) KinaseProfiler
Method: as §1

PKBα(h) = molecular target: T17, PKBα(h) (Homo sapiens, UniProt P31749); assay: Millipore kinaseprofiler diversity array; format: biochemical; details: 10 µM MS-0022
T17 construct: purchased Millipore (Upstate) KinaseProfiler
Method: as §1

PKCα(h) = molecular target: T18, PKCα(h) (Homo sapiens, UniProt P17252); assay: Millipore kinaseprofiler diversity array; format: biochemical; details: 10 µM MS-0022
T18 construct: purchased Millipore (Upstate) KinaseProfiler
Method: as §1

PKCθ(h) = molecular target: T19, PKCθ(h) (Homo sapiens, UniProt Q04759); assay: Millipore kinaseprofiler diversity array; format: biochemical; details: 10 µM MS-0022
T19 construct: purchased Millipore (Upstate) KinaseProfiler
Method: as §1

PRAK(h) = molecular target: T20, PRAK(h) (Homo sapiens, UniProt Q8IW41); assay: Millipore kinaseprofiler diversity array; format: biochemical; details: 10 µM MS-0022
T20 construct: purchased Millipore (Upstate) KinaseProfiler
Method: as §1

Plk3(h) = molecular target: T21, Plk3(h) (Homo sapiens, UniProt Q9H4B4); assay: Millipore kinaseprofiler diversity array; format: biochemical; details: 10 µM MS-0022
T21 construct: purchased Millipore (Upstate) KinaseProfiler
Method: as §1

ROCK-I(h) = molecular target: T22, ROCK-I(h) (Homo sapiens, UniProt Q13464); assay: Millipore kinaseprofiler diversity array; format: biochemical; details: 10 µM MS-0022
T22 construct: purchased Millipore (Upstate) KinaseProfiler
Method: as §1

Rse(h) = molecular target: T23, Rse(h) (Homo sapiens, UniProt Q06418); assay: Millipore kinaseprofiler diversity array; format: biochemical; details: 10 µM MS-0022
T23 construct: purchased Millipore (Upstate) KinaseProfiler
Method: as §1

Rsk1(h) = molecular target: T24, Rsk1(h) (Homo sapiens, UniProt Q15418); assay: Millipore kinaseprofiler diversity array; format: biochemical; details: 10 µM MS-0022
T24 construct: purchased Millipore (Upstate) KinaseProfiler
Method: as §1

SAPK2a(h) = molecular target: T25, SAPK2a(h) (Homo sapiens, UniProt Q16539); assay: Millipore kinaseprofiler diversity array; format: biochemical; details: 10 µM MS-0022
T25 construct: purchased Millipore (Upstate) KinaseProfiler
Method: as §1

TAK1(h) = molecular target: T26, TAK1(h) (Homo sapiens, UniProt O43318); assay: Millipore kinaseprofiler diversity array; format: biochemical; details: 10 µM MS-0022
T26 construct: purchased Millipore (Upstate) KinaseProfiler
Method: as §1

c-RAF(h) = molecular target: T27, c-RAF(h) (Homo sapiens, UniProt P04049); assay: Millipore kinaseprofiler diversity array; format: biochemical; details: 10 µM MS-0022
T27 construct: purchased Millipore (Upstate) KinaseProfiler
Method: as §1

eEF-2K(h) = molecular target: T28, eEF-2K(h) (Homo sapiens, UniProt O00418); assay: Millipore kinaseprofiler diversity array; format: biochemical; details: 10 µM MS-0022
T28 construct: purchased Millipore (Upstate) KinaseProfiler
Method: as §1

p70S6K(h) = molecular target: T29, p70S6K(h) (Homo sapiens, UniProt P23443); assay: Millipore kinaseprofiler diversity array; format: biochemical; details: 10 µM MS-0022
T29 construct: purchased Millipore (Upstate) KinaseProfiler
Method: as §1

T21 sequence (Q9H4B4 whole entry): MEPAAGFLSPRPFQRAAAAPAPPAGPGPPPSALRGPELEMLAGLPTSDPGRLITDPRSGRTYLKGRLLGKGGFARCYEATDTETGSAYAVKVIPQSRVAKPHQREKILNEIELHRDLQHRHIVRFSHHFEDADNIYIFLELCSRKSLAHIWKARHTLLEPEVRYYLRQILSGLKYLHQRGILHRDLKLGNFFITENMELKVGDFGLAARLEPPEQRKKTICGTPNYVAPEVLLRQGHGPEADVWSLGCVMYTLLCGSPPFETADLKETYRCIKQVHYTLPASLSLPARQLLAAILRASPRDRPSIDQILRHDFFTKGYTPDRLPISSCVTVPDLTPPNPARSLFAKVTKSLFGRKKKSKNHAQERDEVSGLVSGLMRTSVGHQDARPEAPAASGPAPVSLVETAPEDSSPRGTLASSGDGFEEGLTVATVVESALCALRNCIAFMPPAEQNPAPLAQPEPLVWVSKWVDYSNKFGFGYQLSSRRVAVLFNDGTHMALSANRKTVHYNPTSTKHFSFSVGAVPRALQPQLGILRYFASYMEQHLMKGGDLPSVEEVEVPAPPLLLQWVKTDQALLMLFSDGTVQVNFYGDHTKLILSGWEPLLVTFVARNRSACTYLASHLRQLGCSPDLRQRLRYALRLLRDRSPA
T22 sequence (Q13464 whole entry): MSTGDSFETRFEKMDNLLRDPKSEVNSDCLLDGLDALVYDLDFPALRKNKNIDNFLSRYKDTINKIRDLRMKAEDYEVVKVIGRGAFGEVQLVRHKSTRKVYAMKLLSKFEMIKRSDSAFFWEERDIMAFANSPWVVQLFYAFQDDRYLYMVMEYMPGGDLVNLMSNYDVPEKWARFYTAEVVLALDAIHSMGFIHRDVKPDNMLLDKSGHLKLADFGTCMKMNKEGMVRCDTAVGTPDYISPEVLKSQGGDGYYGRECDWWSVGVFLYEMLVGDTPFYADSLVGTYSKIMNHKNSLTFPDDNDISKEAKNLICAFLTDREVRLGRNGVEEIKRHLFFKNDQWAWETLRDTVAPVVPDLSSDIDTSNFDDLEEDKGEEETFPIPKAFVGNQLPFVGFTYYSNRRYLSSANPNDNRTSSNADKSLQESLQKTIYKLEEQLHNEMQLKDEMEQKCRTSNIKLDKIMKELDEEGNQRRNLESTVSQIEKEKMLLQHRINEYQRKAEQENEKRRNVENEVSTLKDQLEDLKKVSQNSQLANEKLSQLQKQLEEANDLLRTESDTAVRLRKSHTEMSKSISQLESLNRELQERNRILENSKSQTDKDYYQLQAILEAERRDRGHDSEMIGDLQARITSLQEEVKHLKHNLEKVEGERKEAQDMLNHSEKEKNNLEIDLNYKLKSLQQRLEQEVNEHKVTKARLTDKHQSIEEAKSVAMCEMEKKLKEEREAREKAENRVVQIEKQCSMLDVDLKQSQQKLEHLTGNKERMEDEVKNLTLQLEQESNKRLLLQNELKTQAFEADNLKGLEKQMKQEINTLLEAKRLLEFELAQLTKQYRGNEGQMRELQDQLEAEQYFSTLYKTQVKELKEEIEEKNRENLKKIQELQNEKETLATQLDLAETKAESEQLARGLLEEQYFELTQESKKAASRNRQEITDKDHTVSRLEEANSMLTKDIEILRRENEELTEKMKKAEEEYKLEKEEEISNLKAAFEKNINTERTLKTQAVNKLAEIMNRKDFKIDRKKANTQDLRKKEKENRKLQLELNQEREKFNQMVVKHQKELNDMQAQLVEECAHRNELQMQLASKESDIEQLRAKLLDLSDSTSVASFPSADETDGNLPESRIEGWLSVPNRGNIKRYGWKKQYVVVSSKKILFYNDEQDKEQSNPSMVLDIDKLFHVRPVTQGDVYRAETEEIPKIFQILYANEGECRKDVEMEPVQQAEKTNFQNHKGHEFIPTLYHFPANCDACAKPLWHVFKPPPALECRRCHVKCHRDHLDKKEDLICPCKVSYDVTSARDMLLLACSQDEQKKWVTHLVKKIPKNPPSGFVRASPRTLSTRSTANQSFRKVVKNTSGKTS
T15 sequence (P51955 whole entry): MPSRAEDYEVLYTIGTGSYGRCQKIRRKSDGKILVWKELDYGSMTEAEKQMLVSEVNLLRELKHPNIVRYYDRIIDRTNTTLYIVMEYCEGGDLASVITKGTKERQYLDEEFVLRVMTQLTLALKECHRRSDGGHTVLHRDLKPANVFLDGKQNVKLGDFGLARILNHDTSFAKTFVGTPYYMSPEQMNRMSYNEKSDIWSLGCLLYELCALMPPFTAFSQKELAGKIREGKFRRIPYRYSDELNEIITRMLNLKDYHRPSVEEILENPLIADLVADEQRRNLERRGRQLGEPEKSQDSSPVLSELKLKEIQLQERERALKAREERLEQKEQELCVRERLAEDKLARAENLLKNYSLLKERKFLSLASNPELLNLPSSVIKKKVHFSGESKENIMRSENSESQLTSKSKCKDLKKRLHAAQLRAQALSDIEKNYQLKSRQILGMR
T23 sequence (Q06418 41-890): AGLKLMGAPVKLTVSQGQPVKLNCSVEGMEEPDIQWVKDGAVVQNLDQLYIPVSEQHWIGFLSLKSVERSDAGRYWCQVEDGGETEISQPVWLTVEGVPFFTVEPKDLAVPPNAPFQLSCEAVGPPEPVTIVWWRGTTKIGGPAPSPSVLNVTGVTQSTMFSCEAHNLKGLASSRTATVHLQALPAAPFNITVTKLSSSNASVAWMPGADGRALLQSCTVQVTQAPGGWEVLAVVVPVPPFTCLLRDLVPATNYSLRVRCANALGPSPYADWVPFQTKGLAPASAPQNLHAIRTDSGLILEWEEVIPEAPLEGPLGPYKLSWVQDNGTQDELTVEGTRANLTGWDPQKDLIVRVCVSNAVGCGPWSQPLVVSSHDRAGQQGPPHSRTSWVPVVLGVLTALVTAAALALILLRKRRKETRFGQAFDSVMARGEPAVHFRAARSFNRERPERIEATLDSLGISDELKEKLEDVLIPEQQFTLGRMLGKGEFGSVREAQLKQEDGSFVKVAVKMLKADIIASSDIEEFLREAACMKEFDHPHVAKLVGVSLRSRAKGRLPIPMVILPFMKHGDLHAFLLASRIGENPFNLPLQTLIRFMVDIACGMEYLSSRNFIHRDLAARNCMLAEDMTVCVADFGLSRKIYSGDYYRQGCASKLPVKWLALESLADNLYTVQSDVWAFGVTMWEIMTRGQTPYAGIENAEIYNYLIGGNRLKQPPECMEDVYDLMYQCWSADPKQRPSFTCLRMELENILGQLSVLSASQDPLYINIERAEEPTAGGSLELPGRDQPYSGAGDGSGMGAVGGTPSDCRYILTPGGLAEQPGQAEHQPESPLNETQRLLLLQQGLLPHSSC
T16 sequence (P09619 33-1106): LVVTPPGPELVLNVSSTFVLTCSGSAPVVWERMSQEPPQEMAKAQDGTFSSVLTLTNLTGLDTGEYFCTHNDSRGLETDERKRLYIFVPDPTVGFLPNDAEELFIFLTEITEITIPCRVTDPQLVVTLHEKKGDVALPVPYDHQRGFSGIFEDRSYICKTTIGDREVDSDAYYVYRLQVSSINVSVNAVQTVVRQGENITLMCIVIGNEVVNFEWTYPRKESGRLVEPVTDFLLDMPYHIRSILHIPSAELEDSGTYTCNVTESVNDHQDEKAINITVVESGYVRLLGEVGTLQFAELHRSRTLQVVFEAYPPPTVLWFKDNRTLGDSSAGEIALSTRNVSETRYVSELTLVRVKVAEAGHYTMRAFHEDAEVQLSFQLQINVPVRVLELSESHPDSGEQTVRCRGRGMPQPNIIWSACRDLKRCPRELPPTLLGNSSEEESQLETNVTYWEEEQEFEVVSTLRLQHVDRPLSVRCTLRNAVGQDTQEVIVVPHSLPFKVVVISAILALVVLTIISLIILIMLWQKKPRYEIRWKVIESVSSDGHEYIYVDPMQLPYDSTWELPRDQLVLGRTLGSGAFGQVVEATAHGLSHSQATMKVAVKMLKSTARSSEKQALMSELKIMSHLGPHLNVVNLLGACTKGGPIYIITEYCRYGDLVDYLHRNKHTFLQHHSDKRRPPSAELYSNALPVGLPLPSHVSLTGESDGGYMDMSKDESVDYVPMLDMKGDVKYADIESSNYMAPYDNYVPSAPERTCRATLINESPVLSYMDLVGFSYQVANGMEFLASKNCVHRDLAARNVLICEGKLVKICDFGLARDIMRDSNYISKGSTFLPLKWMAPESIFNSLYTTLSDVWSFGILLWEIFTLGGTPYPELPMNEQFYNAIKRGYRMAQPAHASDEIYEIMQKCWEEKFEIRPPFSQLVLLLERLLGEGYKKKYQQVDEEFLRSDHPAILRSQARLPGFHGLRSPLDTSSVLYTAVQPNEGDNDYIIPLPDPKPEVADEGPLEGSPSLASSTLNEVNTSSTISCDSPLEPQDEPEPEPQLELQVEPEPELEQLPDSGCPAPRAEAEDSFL

Cc1cccn2cc(-c3ccc(NC(=O)c4ccccc4Br)cc3)nc12 [MS-0022, 2-bromo-N-(4-(8-methylimidazo[1,2-a]pyridin-2-yl)phenyl)benzamide]
Gli1 mRNA expression in Ptch−/− MEFs [1]: reduced Gli1 mRNA expression
growth (MTS), PC-3 (PC-3 cells): growth was only reduced by MS-0022
soft agar colony formation, SUIT-2 (SUIT-2 cells): reduction in large (Figure 2C–D, and G) and medium sized colonies
activity at 10 µM (Abl(h)): 96%
activity at 10 µM (CDK2/cyclinA(h)): 98%
activity at 10 µM (DRAK1(h)): 97%
activity at 10 µM (EphA5(h)): 112%
activity at 10 µM (Fyn(h)): 100%
activity at 10 µM (GRK5(h)): 119%
activity at 10 µM (IGF-1R(h)): 105%
activity at 10 µM (IKKα(h)): 103%
activity at 10 µM (JAK2(h)): 110%
activity at 10 µM (KDR(h)): 103%
activity at 10 µM (Lyn(h)): 103%
activity at 10 µM (MAPK2(h)): 101%
activity at 10 µM (MEK1(h)): 73%
activity at 10 µM (MSK2(h)): 92%
activity at 10 µM (NEK2(h)): 127%
activity at 10 µM (PDGFRβ(h)): 108%
activity at 10 µM (PKBα(h)): 107%
activity at 10 µM (PKCα(h)): 106%
activity at 10 µM (PKCθ(h)): 103%
activity at 10 µM (PRAK(h)): 71%
activity at 10 µM (Plk3(h)): 107%
activity at 10 µM (ROCK-I(h)): 103%
activity at 10 µM (Rse(h)): 107%
activity at 10 µM (Rsk1(h)): 91%
activity at 10 µM (SAPK2a(h)): 102%
activity at 10 µM (TAK1(h)): 98%
activity at 10 µM (c-RAF(h)): 106%
activity at 10 µM (eEF-2K(h)): 99%
activity at 10 µM (p70S6K(h)): 94%
